From PubChem BioAssay AID2060888 (Molecular Pharmacology Branch, DTP, NCI, 2025) come the findings set out here.

pIC50: −log10 of the molar value.

This assay relates to 695427-040-R-J1-PDC complex spheroid viability. Kind of assay: Anticancer human tumor 695427-040-R-J1-PDC patient-derived colon adenocarcinoma cell line growth inhibition [RAS]. The note with it: for viability, T/C: stronger effect = lower value. The text has this: RAS pathway inhibitors in Combinations in Complex Spheroids
A high-throughput screen of multi-cell type tumor spheroids was designed to identify active combinations of RAS pathway inhibitors and targeted small molecules. Complex spheroids include a stromal component modeled by human endothelial cells (HUVEC) and fibroblasts modeled by human mesenchymal stem cells (MSCs). The concentration ranges selected for each drug and investigational agent were based upon clinically achievable concentrations if the clinical Cmax of the agent was known.
Compounds. The drugs and investigational agents: abemaciclib (NSC768073), cobimetinib (NSC768068), divarasib (GDC6063, NSC841802), docetaxel (NSC628503), GDC-1971 (RLY-1971, NSC841576), gemcitabine (NSC613327), inavolisib (NSC800729), ipatasertib (NSC767898), KB-0742 (NSC834161), MRTX-1133 (NSC836407), osimertinib (NSC779217), RMC-4630 (NSC839698), RMC-6236 (NSC851965), RMC-6291 (NSC852671), Ro-3306 (NSC812927), sapanisertib (NSC764658), SN-38 (NSC673596), staurosporine (NSC755774), SY5609 (NSC837396), and tovorafenib (DAY101, NSC766906), were obtained from the National Cancer Institute (NCI) Developmental Therapeutics Program Chemical Repository. The FDA-approved anticancer drug set is available from the NCI Developmental Therapeutics Program. […] The stock solutions were prepared in dimethyl sulfoxide (DMSO, Sigma-Aldrich, St. Louis, MO, cat. D2650) at 800-fold the tested concentration and stored at -70 degrees C prior to their use. All drugs and investigational agents were tested over a range starting from a high concentration at or near the clinical Cmax and decreasing in half-log increments. If the clinical Cmax for an agent had not been determined, the highest concentration tested was 10 microM.
Cell Culture. All cells were maintained in an incubator at 37 degrees C and 5% CO2 with 95% humidity. The PDC lines were cultured according to standard operating procedures established by the NCI PDMR. All PDCs were thawed and cultured in Matrigel-coated flasks prepared with a working solution of 1X Ham's F-12 nutrient mix, without supplementation (Invitrogen, Waltham, MA, cat. 11765054), 100 U/mL penicillin-streptomycin (Invitrogen, cat. 15140122), and 2.5% Matrigel (Corning Inc., Corning, NY, cat. 354248) for the first three passages. The 362531-283-R-J2-PDC and 782815-120-R-J1-PDC lines were cultured in 6C/Colon 1B media, which includes advanced DMEM/F-12 (Thermo Fisher Scientific, cat. 12634028), 10 mM HEPES (Thermo Fisher Scientific, cat. 15630080), 1X GlutaMAX supplement (Thermo Fisher Scientific, cat. 35050061), 0.1 mg/mL primocin (InvivoGen, San Diego, CA, cat. ant-pm-2), 10% defined fetal bovine serum, heat inactivated (HyClone Laboratories Inc., Logan, UT, cat. SH30070.03HI), 50% L-WRN conditioned media (ATCC, cat. CRL-3276), 1.25 mM N-Acetyl-L-cysteine (Sigma-Aldrich, cat. A9165), 10 mM nicotinamide (Sigma-Aldrich, cat. N0636), 1X B-27 supplement (Thermo Fisher Scientific, cat. 17504044), 1X N-2 supplement (Thermo Fisher Scientific, cat. 17502048), 50 ng/mL human EGF (Thermo Fisher Scientific, cat. PHG0311), and 10 microM Y-27632 dihydrochloride (Tocris Bioscience, cat. 1254). The K12877-001-R-J1-PDC line was cultured in 6I media, which includes all 6C/Colon 1B media plus 10 ng/mL human FGF-10 (PeproTech, cat. 100-26), 1 ng/mL human FGF-2 (PeproTech, cat. 100-18B), 1 µM prostaglandin E2 (Tocris Bioscience, cat. 2296), […] hydrocortisone (Sigma-Aldrich, cat. H4001), and […] bovine insulin (Sigma-Aldrich, cat. I6634). The K86415-001-R-J1-PDC line was cultured in 6D media, which includes all 6C/Colon 1B media components minus the L-WRN conditioned media. The 485176-168-R4-J1-PDC was cultured in PANC media, which includes all 6C/Colon 1B media plus 100 ng/mL human FGF-10 (PeproTech, cat. 100-26), 500 nM SB-431542 (Selleckchem, cat. S1067), and 10 nM gastrin (Tocris Bioscience, cat. 3006). […]
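Further: viability read after seven days of drug exposure.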

On to `CCc1c2c(nc3ccc(O)cc13)-c1cc3c(c(=O)n1C2)COC(=O)[C@]3(O)CC` + CCn1c(-c2cccnc2C(C)OC)c2c3cc(ccc31)N1CCOC(CC(NC(=O)C(C(C)C)N(C)C(=O)C3(F)CCN(C(=O)C#CC(C)(C)N(C)C)CC3)C(=O)N3CCCC(N3)C(=O)OCC(C)(C)C2)C1, for which the pIC50 reads like this: (curve of first compound, second compound 0.000949 µM) 6.95; (curve of first compound, second compound 0.003 µM) 6.88; (curve of first compound, second compound 0.00949 µM) 7.31; (curve of first compound, second compound 0.03 µM) 7.16; (curve of first compound, second compound 0.0949 µM) 7.10; (curve of first compound, second compound 0.3 µM) 7.02. Further, the viability, T/C (second compound 0.000949 µM, first compound 0.000949 µM) was 97.1%; the viability, T/C (second compound 0.000949 µM, first compound 0.003 µM) is 93.3%; the viability, T/C (second compound 0.000949 µM, first compound 0.00949 µM) was 84.2%; the viability, T/C (second compound 0.000949 µM, first compound 0.03 µM) was 61.5%; the viability, T/C (second compound 0.000949 µM, first compound 0.0949 µM) is 56.7%; the viability, T/C (second compound 0.000949 µM, first compound 0.3 µM) is 37.7%. Also, the viability, T/C (second compound 0.003 µM, first compound 0.000949 µM) is 91.7%; the viability, T/C (second compound 0.003 µM, first compound 0.003 µM) is 84.6%; the viability, T/C (second compound 0.003 µM, first compound 0.00949 µM) is 66.1%; the viability, T/C (second compound 0.003 µM, first compound 0.03 µM) is 64.1%; the viability, T/C (second compound 0.003 µM, first compound 0.0949 µM) was 53%; the viability, T/C (second compound 0.003 µM, first compound 0.3 µM) is 43.1%. The viability, T/C is 98.3% (second compound 0.00949 µM, first compound 0.000949 µM); 76.8% (second compound 0.00949 µM, first compound 0.003 µM); 65.8% (second compound 0.00949 µM, first compound 0.00949 µM); 63.4% (second compound 0.00949 µM, first compound 0.03 µM); 36.5% (second compound 0.00949 µM, first compound 0.0949 µM); 35.8% (second compound 0.00949 µM, first compound 0.3 µM). The viability, T/C is 79.8% (second compound 0.03 µM, first compound 0.000949 µM); 96.4% (second compound 0.03 µM, first compound 0.003 µM); 80.1% (second compound 0.03 µM, first compound 0.00949 µM); 71.6% (second compound 0.03 µM, first compound 0.03 µM); 41.7% (second compound 0.03 µM, first compound 0.0949 µM); 31.5% (second compound 0.03 µM, first compound 0.3 µM). In addition, the viability, T/C (second compound 0.0949 µM, first compound 0.000949 µM) is 87.3%; the viability, T/C (second compound 0.0949 µM, first compound 0.003 µM) was 79.5%; the viability, T/C (second compound 0.0949 µM, first compound 0.00949 µM) is 81.6%; the viability, T/C (second compound 0.0949 µM, first compound 0.03 µM) was 49.7%; the viability, T/C (second compound 0.0949 µM, first compound 0.0949 µM) was 57%; the viability, T/C (second compound 0.0949 µM, first compound 0.3 µM) was 24.2%. In addition, the viability, T/C reads like this: (second compound 0.3 µM, first compound 0.000949 µM) 82.7%; (second compound 0.3 µM, first compound 0.003 µM) 101%; (second compound 0.3 µM, first compound 0.00949 µM) 69.7%; (second compound 0.3 µM, first compound 0.03 µM) 58.8%; (second compound 0.3 µM, first compound 0.0949 µM) 57%; (second compound 0.3 µM, first compound 0.3 µM) 31.2%.

Regarding `Nc1ccn(C2OC(CO)C(O)C2(F)F)c(=O)n1` (stereo not drawn), the viability, T/C is 92.8% [middle of 4 runs] (compound 0.00316 µM); 78.1% [middle of 4 runs] (compound 0.0316 µM); 78.2% [middle of 4 runs] (compound 0.1 µM); 72% [middle of 4 runs] (compound 0.316 µM); 65% [middle of 4 runs] (compound 1 µM). Besides, the pIC50 (curve of compound) was under 6.00.

One may read the pIC50 as −log10 of the IC50, conventionally taken in molar units. By viability, T/C is commonly meant the ratio of treated to control.
